In patent US11530237B2, “Compositions and methods for treating CNS disorders” (Sage Therapeutics, Inc., priority 2014, dated 2022):

What follows are compounds tested against [35S]-TBPS binding, rat brain cortical membranes (assay: Steroid inhibition of TBPS binding ([35S]-TBPS radioligand displacement)). Conditions: 3 nM [35S]-TBPS, 5 μM GABA.
Experimental: TBPS binding assays using rat brain cortical membranes in the presence of 5 μM GABA has been described (Gee et al, J. Pharmacol. Exp. Then 1987, 241, 346-353; Hawkinson et al, Mol. Pharmacol. 1994, 46, 977-985; Lewin, A. H et al., Mol. Pharmacol. 1989, 35, 189-194).
Briefly, cortices are rapidly removed following decapitation of carbon dioxide-anesthetized Sprague-Dawley rats (200-250 g). The cortices are homogenized in 10 volumes of […] using a glass/teflon homogenizer and centrifuged at 1500×g for 10 min at 4° C. The resultant supernatants are centrifuged at 10,000×g for 20 min at 4° C. to obtain the P2 pellets. The P2 pellets are resuspended in 200 mM NaCl/50 mM Na—K phosphate pH 7.4 buffer and centrifuged at 10,000×g for 10 min at 4° C. This washing procedure is repeated twice and the pellets are resuspended in 10 volumes of buffer. Aliquots (100 μL) of the membrane suspensions are incubated with 3 nM [^35S]-TBPS and 5 μL aliquots of test drug dissolved in dimethyl sulfoxide (DMSO) (final 0.5%) in the presence of 5 μM GABA. The incubation is brought to a final volume of 1.0 mL with buffer. […] Following a 90 min incubation at room temp, the assays are terminated by filtration through glass fiber filters (Schleicher and Schuell No. 32) using a cell harvester (Braudel) and rinsed three times with ice-cold buffer. Filter bound radioactivity is measured by liquid scintillation spectrometry. Non-linear curve fitting of the overall data for each drug averaged for each concentration is done using Prism (GraphPad).
Various compounds are or can be screened to determine their potential as modulators of [^35S]-TBPS binding in vitro. These assays are or can be performed in accordance with the above discussed procedures.

Row | SMILES | IC50 [nM]
1 | C[C@H](C(=O)[C@H]1CC[C@H]2[C@@H]3CC[C@@H]4C[C@](C)(O)CC[C@]4(C)[C@H]3CC[C@]12C)n1nnc2ccccc21 [Compound 62, (R)-2-(1H-benzo[d][1,2,3]triazol-1-yl)-1-((3R,5R,8R,9S,10S,13S,14S,17S)-3-hydroxy-3,10,13-trimethylhexadecahydro-1H-cyclopenta[a]phenanthren-17-yl)propan-1-one] | 100 to 500
2 | C[C@H](C(=O)[C@H]1CC[C@H]2[C@@H]3CC[C@@H]4C[C@](C)(O)CC[C@]4(C)[C@H]3CC[C@]12C)n1cc(C#N)cn1 [Compound 72, 1-((R)-1-((3R,5R, 8R, 9S, 10S, 13S, 14S, 17S)-3-hydroxy-3,10,13-trimethylhexadecahydro-1H-cyclopenta[a]phenanthren-17-yl)-1-oxopropan-2-yl)-1H-pyrazole-4-carbonitrile] | 10 to 50
3 | C[C@@H](C(=O)[C@H]1CC[C@H]2[C@@H]3CC[C@@H]4C[C@](C)(O)CC[C@]4(C)[C@H]3CC[C@]12C)n1cc(C#N)cn1 [Compound 73, 1-((S)-1-((3R,5R,8R,9S,10S,13S,14S,17S)-3-hydroxy-3,10,13-trimethylhexadecahydro-1H-cyclopenta[a]phenanthren-17-yl)-1-oxopropan-2-yl)-1H-pyrazole-4-carbonitrile] | 10 to 50
4 | C[C@H](C(=O)[C@H]1CC[C@H]2[C@@H]3CC[C@H]4C[C@](C)(O)CC[C@]4(C)[C@H]3CC[C@]12C)n1cc(C#N)cn1 [Compound 80, 1-((R)-1-((3R,5S,8R,9S,10S,13S,14S,17S)-3-hydroxy-3,10,13-trimethylhexadecahydro-1H-cyclopenta[a]phenanthren-17-yl)-1-oxopropan-2-yl)-1H-pyrazole-4-carbonitrile] | 100 to 500
5 | C[C@@H](C(=O)[C@H]1CC[C@H]2[C@@H]3CC[C@H]4C[C@](C)(O)CC[C@]4(C)[C@H]3CC[C@]12C)n1cc(C#N)cn1 [Compound 81, 1-((S)-1-((3R,5S,8R,9S,10S,13S,14S,17S)-3-hydroxy-3,10,13-trimethylhexadecahydro-1H-cyclopenta[a]phenanthren-17-yl)-1-oxopropan-2-yl)-1H-pyrazole-4-carbonitrile] | 10 to 50
6 | CN(C)C(=O)c1cnn(CC(=O)[C@H]2CC[C@H]3[C@@H]4CC[C@@H]5C[C@](C)(O)CC[C@]5(C)[C@H]4CC[C@]23C)c1 [Compound 86] | < 10
7 | C[C@H](C(=O)[C@H]1CC[C@H]2[C@@H]3CC[C@H]4C[C@](C)(O)CC[C@]4(C)[C@H]3CC[C@]12C)n1nccn1 [Compound 90, (R)-1-((3R,5S,8R,9S,10S,13S,14S,17S)-3-hydroxy-3,10,13-trimethylhexadecahydro-1H-cyclopenta[a]phenanthren-17-yl)-2-(2H-1,2,3-triazol-2-yl)propan-1-one] | > 500
8 | C[C@@H](C(=O)[C@H]1CC[C@H]2[C@@H]3CC[C@H]4C[C@](C)(O)CC[C@]4(C)[C@H]3CC[C@]12C)n1nccn1 [Compound 91, (S)-1-((3R,5S,8R,9S,10S,13S,14S,17S)-3-hydroxy-3,10,13-trimethylhexadecahydro-1H-cyclopenta[a]phenanthren-17-yl)-2-(2H-1,2,3-triazol-2-yl)propan-1-one] | 50 to 100
9 | C[C@H](C(=O)[C@H]1CC[C@H]2[C@@H]3CC[C@H]4C[C@](C)(O)CC[C@]4(C)[C@H]3CC[C@]12C)n1ccnn1 [Compound 92, (R)-1-((3R,5S,8R,9S,10S,13S,14S,17S)-3-hydroxy-3,10,13-trimethylhexadecahydro-1H-cyclopenta[a]phenanthren-17-yl)-2-(1H-1,2,3-triazol-1-yl)propan-1-one] | > 500
10 | C[C@@H](C(=O)[C@H]1CC[C@H]2[C@@H]3CC[C@H]4C[C@](C)(O)CC[C@]4(C)[C@H]3CC[C@]12C)n1ccnn1 [Compound 93, (S)-1-((3R,5S,8R,9S,10S,13S,14S,17S)-3-hydroxy-3,10,13-trimethylhexadecahydro-1H-cyclopenta[a]phenanthren-17-yl)-2-(1H-1,2,3-triazol-1-yl)propan-1-one] | 100 to 500
11 | C[C@H](C(=O)[C@H]1CC[C@H]2[C@@H]3CC[C@H]4C[C@](C)(O)CC[C@]4(C)[C@H]3CC[C@]12C)n1nc2ccccc2n1 [Compound 98, (R)-2-(2H-benzo[d][1,2,3]triazol-2-yl)-1-((3R,5S,8R,9S,10S,13S,14S,17S)-3-hydroxy-3,10,13-trimethylhexadecahydro-1H-cyclopenta[a]phenanthren-17-yl)propan-1-one] | 50 to 100
12 | C[C@@H](C(=O)[C@H]1CC[C@H]2[C@@H]3CC[C@H]4C[C@](C)(O)CC[C@]4(C)[C@H]3CC[C@]12C)n1nc2ccccc2n1 [Compound 99, (S)-2-(2H-benzo[d][1,2,3]triazol-2-yl)-1-((3R,5S,8R,9S,10S,13S,14S,17S)-3-hydroxy-3,10,13-trimethylhexadecahydro-1H-cyclopenta[a]phenanthren-17-yl)propan-1-one] | 10 to 50
13 | C[C@H](C(=O)[C@H]1CC[C@H]2[C@@H]3CC[C@H]4C[C@](C)(O)CC[C@]4(C)[C@H]3CC[C@]12C)n1nnc2ccccc21 [Compound 100, (R)-2-(1H-benzo[d][1,2,3]triazol-1-yl)-1-((3R,5S,8R,9S,10S,13S,14S,17S)-3-hydroxy-3,10,13-trimethylhexadecahydro-1H-cyclopenta[a]phenanthren-17-yl)propan-1-one] | > 500
14 | C[C@@H](C(=O)[C@H]1CC[C@H]2[C@@H]3CC[C@H]4C[C@](C)(O)CC[C@]4(C)[C@H]3CC[C@]12C)n1nnc2ccccc21 [Compound 101, (S)-2-(1H-benzo[d][1,2,3]triazol-1-yl)-1-((3R,5S,8R,9S,10S,13S,14S,17S)-3-hydroxy-3,10,13-trimethylhexadecahydro-1H-cyclopenta[a]phenanthren-17-yl)propan-1-one] | 50 to 100
15 | CC(C)(C(=O)[C@H]1CC[C@H]2[C@@H]3CC[C@H]4C[C@](C)(O)CC[C@]4(C)[C@H]3CC[C@]12C)n1nnc2ccccc21 [Compound 102, 2-(1H-benzo[d][1,2,3]triazol-1-yl)-1-((3R,5S,8R,9S,10S,13S,14S,17S)-3-hydroxy-3,10,13-trimethylhexadecahydro-1H-cyclopenta[a]phenanthren-17-yl)-2-methylpropan-1-one] | > 500
16 | C[C@@]1(O)CC[C@@]2(C)[C@@H](CC[C@@H]3[C@@H]2CC[C@]2(C)[C@@H](C(=O)Cn4cc5ccc(F)cc5n4)CC[C@@H]32)C1 [Compound 237] | 10 to 50
17 | C[C@@]1(O)CC[C@@]2(C)[C@@H](CC[C@@H]3[C@@H]2CC[C@]2(C)[C@@H](C(=O)Cn4ncc5ccc(F)cc54)CC[C@@H]32)C1 [Compound 238] | 50 to 100
18 | C[C@@]1(O)CC[C@@]2(C)[C@@H](CC[C@@H]3[C@@H]2CC[C@]2(C)[C@@H](C(=O)Cn4cc5cc(F)ccc5n4)CC[C@@H]32)C1 [Compound 239] | 10 to 50
19 | C[C@@]1(O)CC[C@@]2(C)[C@@H](CC[C@@H]3[C@@H]2CC[C@]2(C)[C@@H](C(=O)Cn4ncc5cc(F)ccc54)CC[C@@H]32)C1 [Compound 240] | 10 to 50
20 | C[C@@]1(O)CC[C@@]2(C)[C@@H](CC[C@@H]3[C@@H]2CC[C@]2(C)[C@@H](C(=O)Cn4nc5ccc(F)cc5n4)CC[C@@H]32)C1 [Compound 245] | 10 to 50
